Assay results published in PMC5656322, “BAK1 is involved in AtRALF1-induced inhibition of root cell expansion” (PLoS Genetics, 2017).
Where no end group is shown, it is not given here.

How the values were obtained:
BAK1 = BAK1 phosphorylation assay, anti-phosphoserine; format: in vivo, Arabidopsis thaliana; settings: pBAK1:BAK1-6xHA roots; 1, 2 and 10 μM, 20 min
Protocol: Transgenic plants pBAK1:BAK1-6xHA were grown in vertical plates for 10–15 days. The plants were treated with 0.1 μM BL, 2 μM RALF1(9–49), 1 μM, 2 μM or 10 μM AtRALF1 for 20 min. The roots were isolated, and the microsomal fractions were obtained as described above. The microsomal fractions were incubated with anti-HA beads (EZview Red Anti-HA Affinity Gel, Sigma) for 2 h at 4 °C to immunoprecipitate the BAK1 protein. The unbound materials were removed by washing 3 times. Proteins were separated by SDS/PAGE and further analyzed by protein blotting using anti-HA (Thermo Scientific), or anti-phosphothreonine (Novus Biologicals), or anti-phosphoserine (Novus Biologicals) antibodies.

[1] = tested on: microsomal fractions from the roots of Arabidopsis; experiment: Binding assay with acridinium-labeled AtRALF1, microsomal fractions; design: species or system Arabidopsis thaliana
Protocol: (A) Whole seedlings (5 days old) were treated for 15 min with acriAtRALF1 (acriR1), acriR1 and an excess of unlabeled AtRALF34 (R34), RALF1(9–49) [(R-9-49)], or AtRALF1 (R1), as indicated. The values are the mean ± SD of two measurements (5 seedlings each). (B) Microsomal fractions from wild-type and bak1 mutants were incubated for 15 min with acriAtRALF1 (acriR1), with acriR1 and an excess of unlabeled RALF1(9–49) [(R-9-49)], or with AtRALF1 (R1), as indicated. The values are the mean ± SD of two measurements. The proportions of labeled: unlabeled proteins are shown in parentheses. Single and triple asterisks indicate P < 0.1 and P < 0.01 (Student’s t test).
Arabidopsis seedlings were grown for 5 days on vertical plates. Roots were homogenized in extraction buffer [300 mM sucrose, 100 mM Tris-HCl pH 7.5, 25 mM EDTA, 25 mM NaF, 1 mM Na2MoO4, 1 mM PMSF and protease inhibitor cocktail (Roche), adjusted to pH 6.2], and the homogenate was spun at 2,000 x g for 10 min at 4 °C. The supernatant was recovered and centrifuged at 100,000 x g for 50 min at 4 °C to precipitate the microsomal pellet. The pellet was resuspended in the extraction buffer plus 0.5% Triton-X. Seedlings or microsomal fractions were placed in 200 μl of medium and incubated with 7 nM acridinium-labeled peptide (acriAtRALF1 or acriAtRALF34) and different concentrations of AtRALF1, AtRALF34 or RALF1(9–49) for 15–20 min at 4 °C on a shaker. After incubation, the seedlings or microsomal fractions were washed three times with the same medium. Unless indicated otherwise, five entire seedlings and approximately 10 ng of microsomal fractions were used per treatment. The resulting luminescence emissions from the acridinium were measured using a microplate reader (Biotec ELx 800) at 2 s after injecting 50 μl of a solution containing 20 mM H2O2 in 0.1 M NaOH. These experiments were repeated at least three times using independent biological replicates. Duplicates were used for each concentration or treatment. The data shown are from one representative experiment.

BAK1-ECD = target: T1, BAK1-ECD (Arabidopsis thaliana, UniProt Q94F62); experiment: Isothermal titration calorimetry (ITC); format: binding
T1 construct: Isothermal titration calorimetry (ITC) of the extracellular domain of BAK1 (BAK1-ECD) vs. AtRALF1; made in house; host or cells: Escherichia coli Rosetta DE3 or BL21
T1 sequence (Q94F62 26-225 limits assumed): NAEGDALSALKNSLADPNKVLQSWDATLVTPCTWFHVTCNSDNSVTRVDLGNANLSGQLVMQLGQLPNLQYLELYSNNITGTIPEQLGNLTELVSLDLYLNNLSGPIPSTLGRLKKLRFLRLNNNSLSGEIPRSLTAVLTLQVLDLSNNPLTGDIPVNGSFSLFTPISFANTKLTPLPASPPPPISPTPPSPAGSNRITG
From the text: Fig 6 AtRALF1 interacts physically with BAK1 protein. (A) The active AtRALF1 peptide interacts with the extracellular domain (ECD) of BAK1 (BAK1-ECD) in yeast. The AtRALF1 protein fused to the GAL4 DNA-binding domain (AtRALF1-pGBKT7) was used as bait to test its interaction with the extracellular domain of the proteins fused to the GAL4 activation domain (pGADT7): BAK1 (BAK1-ECD), BAK7 (BAK7-ECD), BRI1 (BRI1-ECD) and FLS2 (FLS2-ECD). (B) Blueprint showing the truncated proteins from the extracellular domain of BAK1 tested in the two-hybrid assay. The extracellular domain of BAK1 comprises leucine zippers (LZ), 5 leucine rich-regions (LRRs) and a proline-rich region (pro-rich). (C) AtRALF1-pGBKT7 was used as bait to test its interaction with truncated proteins fused to the GAL4 activation domain (pGADT7). The transformed yeast cells in (A) and (C) were selected on a synthetic complete medium lacking leucine, tryptophan and histidine to test interactions. (D, E) Co-immunoprecipitation (Co-IP) in vitro between the extracellular domain of BAK1 (HA-BAK1-ECD) and AtRALF1 recombinant purified proteins. HA-BAK1-ECD was detected with an anti-HA antibody. AtRALF1 was detected with an anti-RALF antibody. (F) Recombinant AtRALF1 is co-immunoprecipitated with the BAK1-GFP protein expressed in tobacco. BAK1-GFP was detected with an anti-GFP antibody. […] (G) Isothermal titration calorimetry (ITC) of the extracellular domain of BAK1 (BAK1-ECD) vs. AtRALF1 in ITC buffer (15 mM HEPES, pH 6.8). ITC experiments were simulated using 28 injections of BAK1-ED (0.7 mM, vol 10 μL) on AtRALF1 (0.03 mM vol cell = 1.4 mL) at 25°C. Kd = dissociation constant; N = number of binding sites.
ITC was performed using a VP ITC with a 1.4 ml standard cell and a 293 μl titration syringe. Proteins were dissolved in ITC buffer (15 mM HEPES (4-(2-hydroxyethyl)-1-piperazineethanesulfonic acid, pH 6.8) and the experiments were performed at 25°C. Molar protein concentration for BAK1-ECD and AtRALF1 were calculated using their molecular weight of 25,654.04 and 7,631 Da, respectively (determined by HPLC). The concentrations for the complex titrations were 0.7 mM of protein (BAK1-ECD) in the syringe and 0.03 mM of ligand (AtRALF1) in the cell at time intervals of 300 s (28 injections of volume 10 μl) to ensure that the titration peak returned to the baseline.
ITC data were corrected for the heat of dilution by subtracting the mixing enthalpies for titrant solution injections into protein free ITC buffer. Data were analyzed using the Origin software (version 7.0) as provided by the manufacturer. Independent experiments were repeated three times with similar results.

Substance | BAK1 serine phosphorylation (BAK1) | share of AtRALF1 binding due to BAK1 ([1]; microsomal fractions from roots) | acriAtRALF1 binding reduced to, of the total ([1]; microsomal fractions of wild-type and bak1, 10-fold excess of AtRALF1) | acriAtRALF1 binding reduced to, of the total binding ([1]; microsomal fractions of wild-type and bak1, 100- or 500-fold excess of AtRALF1) | number of binding sites (BAK1-ECD; ITC experiment 1 of 3) | number of binding sites (BAK1-ECD; ITC experiment 2 of 3) | N (number of binding sites) (BAK1-ECD; representative experiment, Fig 6G, 15 mM HEPES, pH 6.8, 25°C) | interaction with BAK1-ECD by ITC (BAK1-ECD; BAK1-ECD 0.7 mM into 0.03 mM peptide, 15 mM HEPES, pH 6.8, 25°C)
AtRALF1: root-specific RALF isoform in Arabidopsis; recombinant peptide hormone produced in E. coli (ATTKYISYQSLKRNSVPCSRRGASYYNCQNGAQANPYSRGCSKIARCRS; ends and bridges not checked; cysteine pairing not given here) | no changes were detected | approximately 15% | approximately 30% | approximately 60% | 1.27 | 1.5 | 1.27 sites | –
RALF1(9–49): inactive AtRALF1 peptide which has a deletion of the first 8 amino acids (QSLKRNSVPCSRRGASYYNCQNGAQANPYSRGCSKIARCRS; ends and bridges not checked; cysteine pairing not given here; UniProt Q9SRY3 80-120, looked up, fragment) | – | – | – | – | – | – | – | no interaction between the inactive analog and BAK1-ECD
